From the supplement of paper PMC10307832

Tests used:
Experiment in all cases: relative viability (nuclei count vs DMSO), 5 days (fraction); higher = more cells survive
Everolimus + Linsitinib = compound: CO[C@H]1C[C@@H]2CC[C@@H](C)[C@@](O)(O2)C(=O)C(=O)N2CCCC[C@H]2C(=O)O[C@H]([C@H](C)C[C@@H]2CC[C@@H](OCCO)[C@H](OC)C2)CC(=O)[C@H](C)/C=C(\C)[C@@H](O)[C@@H](OC)C(=O)[C@H](C)C[C@H](C)/C=C/C=C/C=C/1C [Everolimus] + C[C@]1(O)C[C@@H](c2nc(-c3ccc4ccc(-c5ccccc5)nc4c3)c3c(N)nccn32)C1 [Linsitinib] (partner 1 µM)
In short: (§1)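 Lung cancer cell lines, seeded in 1536-well plates, were treated the following day by pin tool with a single drug or with five library-drug doses (not always all listed) in √10 steps on top of a fixed anchor-drug dose. Cells were fixed and nuclei stained in one step after 5 days, and nuclei were counted. Relative viability is the nuclei count for treated wells divided by that for vehicle wells, reported as medians of duplicate plates.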

Everolimus + Navitoclax = compound: CO[C@H]1C[C@@H]2CC[C@@H](C)[C@@](O)(O2)C(=O)C(=O)N2CCCC[C@H]2C(=O)O[C@H]([C@H](C)C[C@@H]2CC[C@@H](OCCO)[C@H](OC)C2)CC(=O)[C@H](C)/C=C(\C)[C@@H](O)[C@@H](OC)C(=O)[C@H](C)C[C@H](C)/C=C/C=C/C=C/1C [Everolimus] + CC1(C)CCC(c2ccc(Cl)cc2)=C(CN2CCN(c3ccc(C(=O)NS(=O)(=O)c4ccc(N[C@H](CCN5CCOCC5)CSc5ccccc5)c(S(=O)(=O)C(F)(F)F)c4)cc3)CC2)C1 [Navitoclax] (partner 0.5 µM)
In short: as §1

Everolimus + Vorinostat = compound: CO[C@H]1C[C@@H]2CC[C@@H](C)[C@@](O)(O2)C(=O)C(=O)N2CCCC[C@H]2C(=O)O[C@H]([C@H](C)C[C@@H]2CC[C@@H](OCCO)[C@H](OC)C2)CC(=O)[C@H](C)/C=C(\C)[C@@H](O)[C@@H](OC)C(=O)[C@H](C)C[C@H](C)/C=C/C=C/C=C/1C [Everolimus] + O=C(CCCCCCC(=O)Nc1ccccc1)NO [Vorinostat] (partner 1 µM)
In short: as §1

Everolimus + Pemetrexed = compound: CO[C@H]1C[C@@H]2CC[C@@H](C)[C@@](O)(O2)C(=O)C(=O)N2CCCC[C@H]2C(=O)O[C@H]([C@H](C)C[C@@H]2CC[C@@H](OCCO)[C@H](OC)C2)CC(=O)[C@H](C)/C=C(\C)[C@@H](O)[C@@H](OC)C(=O)[C@H](C)C[C@H](C)/C=C/C=C/C=C/1C [Everolimus] + Nc1nc2[nH]cc(CCc3ccc(C(=O)N[C@@H](CCC(=O)O)C(=O)O)cc3)c2c(=O)[nH]1 [Pemetrexed] (partner 0.2 µM)
In short: as §1

Cell Line	relative viability (Everolimus + Linsitinib; first compound 0.01 µM)	relative viability (Everolimus + Linsitinib; first compound 0.03162 µM)	relative viability (Everolimus + Linsitinib; first compound 0.1 µM)	relative viability (Everolimus + Linsitinib; first compound 0.3162 µM)	relative viability (Everolimus + Linsitinib; first compound 1 µM)	relative viability (Everolimus + Navitoclax; first compound 0.01 µM)	relative viability (Everolimus + Navitoclax; first compound 0.03162 µM)	relative viability (Everolimus + Navitoclax; first compound 0.1 µM)	relative viability (Everolimus + Navitoclax; first compound 0.3162 µM)	relative viability (Everolimus + Navitoclax; first compound 1 µM)	relative viability (Everolimus + Vorinostat; first compound 0.01 µM)	relative viability (Everolimus + Vorinostat; first compound 0.03162 µM)	relative viability (Everolimus + Vorinostat; first compound 0.1 µM)	relative viability (Everolimus + Vorinostat; first compound 0.3162 µM)	relative viability (Everolimus + Vorinostat; first compound 1 µM)	relative viability (Everolimus + Pemetrexed; first compound 0.01 µM)	relative viability (Everolimus + Pemetrexed; first compound 0.03162 µM)	relative viability (Everolimus + Pemetrexed; first compound 0.1 µM)	relative viability (Everolimus + Pemetrexed; first compound 0.3162 µM)	relative viability (Everolimus + Pemetrexed; first compound 1 µM)
NCI-H2085	0.735	0.522	0.519	0.509	0.484	0.73	0.811	0.66	0.83	0.705	0.636	0.582	0.497	0.576	0.541	0.655	0.652	0.493	0.624	0.63
NCI-H2087	0.821	1.09	0.765	0.788	0.674	0.888	0.852	0.888	0.847	0.69	0.321	0.5	0.443	0.46	0.532	0.587	0.636	0.612	0.608	0.626
NCI-H2126	0.463	0.448	0.393	0.425	0.457	0.515	0.455	0.4	0.492	0.485	0.546	0.482	0.407	0.553	0.497	0.531	0.522	0.497	0.561	0.535
NCI-H2228	0.272	0.351	0.552	0.249	0.364	0.685	0.527	0.508	0.421	0.539	0.536	0.342	0.458	0.436	0.336	0.252	0.313	0.312	0.285	0.243
NCI-H2347	0.912	0.911	0.581	0.798	0.769	0.906	0.453	0.26	0.453	0.429	0.565	0.556	0.455	0.419	0.551	0.406	0.442	0.486	0.412	0.434
NCI-H2405	0.515	0.49	0.463	0.536	0.536	0.672	0.63	0.53	0.662	0.452	0.696	0.679	0.652	0.606	0.75	0.796	0.825	0.671	0.726	0.825
NCI-H3122	0.791	0.822	0.621	0.528	0.761	1.05	0.916	0.82	0.89	0.617	0.678	0.598	0.607	0.369	0.669	0.198	0.232	0.228	0.208	0.201
PC-3 [JPC-3]	0.869	0.914	0.785	0.834	0.866	0.763	0.676	0.577	0.664	0.568	0.693	0.498	0.54		0.566	0.988	0.9	0.72		1.07
PC-14	0.937	1	0.945	0.82	0.724	1.06	1.05	0.88	0.911	0.864	0.379	0.576	0.486	0.528	0.421	0.176	0.186	0.181	0.184	0.184
RERF-LC-KJ	0.86	0.679	0.609	0.531	0.571	0.778	0.571	0.47	0.579	0.488	0.552	0.461	0.446	0.478	0.49	0.468	0.489	0.498	0.426	0.457
SK-LU-1	0.501	0.66	0.552	0.614	0.631	0.529	0.48	0.494	0.568	0.475	0.52	0.52	0.587	0.538	0.527	0.607	0.683	0.688	0.74	0.681
SK-MES-1	0.964	0.661	0.689	0.606	0.511	0.948	0.688		0.715	0.579	0.897	1	1	0.887	0.743	0.839	0.826	0.825	0.827	0.741
SW 1573	0.615	0.454	0.506	0.401	0.386	0.577	0.466	0.464	0.533	0.395	0.373	0.452	0.465	0.458	0.478	0.594	0.592	0.543	0.562	0.496
UMC-11	0.443	0.391	0.419	0.388	0.393	0.171	0.164	0.166	0.207	0.179	0.213	0.196	0.19	0.187	0.213	0.43	0.412	0.429	0.394	0.426
